Results as given in patent US20090062243A1, “Lupane-Type Triterpenoids Modified at 30-Position and Analogues Thereof” (ADVANCED LIFE SCIENCES, INC., priority 2007, published 2009).

What was measured:
SK-MEL-2 (melanoma) = assay: MTS cell viability assay, SK-MEL-2; format: cell-based; conditions: Homo sapiens, SK-MEL-2, cells incubated 72 h
Procedure: (§1) Cells were plated, the evening before treatment, for each treatment on 96-well plates (1×10^4 cells/well) in 100 μL volume per well. Analog solutions were prepared by diluting each test compound in DSMO (10 mM) with the appropriate cell growth media for each individual cell line, or in “Universal Media” if several cell lines were to be assayed in parallel, immediately prior to cell treatment. Universal Media consisted of 5 mL sodium pyruvate (100× liquid stock, MediaTech), 5 mL glucose (100×, 45% liquid stock, MediaTech), 5 mL Penicillin/Streptomycin (100× liquid stock, MediaTech), 10 mL sodium bicarbonate (50× liquid stock, MediaTech), 25 mL Fetal Calf Serum, 1.25 mL insulin (4 mg/mL, Gibco) and […] RPMI media with 2 mM L-glutamine for a total volume of 500 mL.
(§2) Cells were treated by aspirating plating media from each well and adding 80 μL of betulinic acid (control) or each analog solution in serial dilutions to the adherent cells. All treatments were performed in triplicate. Growth media (80 μL) was added to 3 blank wells (no cells) to measure background from the growth media. Growth media alone (no DMSO or test compound) was added to 3 wells containing cells to measure the baseline MTS activity. Vehicle (DMSO) control in serial dilutions, added to cells, was also included to monitor basal toxicity from DMSO. Cells were incubated at 37° C. for 72 h, or 120 h for the OVCAR cell lines. MTS reagent (per 96-well plate) were prepared by combining 2 mL of MTS working solution (Cell Titer AQueous Non-Radioactive Cell Proliferation Assay, Promega, cat#G1112), 100 μL of 0.92 mg/mL phenazine methosulfate/Dulbecco's PBS and 2.1 mL growth media. MTS reagent (40 μL) were added to each well and incubated at 37° C. for 1.5 to 4 h. Plates were gently shaken by hand until solution in each well appeared homogenous. Absorbances at 490 nm were measured on a Wallac Victor II plate reader at multiple time points following the addition of MTS reagent for each plate. Triplicate absorbance (490 nm) measurements were averaged following background (no cell) subtraction for each drug concentration. Percent Cell Viability was calculated for each drug concentration using the following equation:
(§3) {[Absorbance(analog treated)]/[Absorbance(DMSO treated)]}×100%
(§4) Cytotoxicity dose response for the triterpenoid derivatives synthesized in SK-MEL-2 (melanoma), A-375 (melanoma), Daoy (glioblastoma), LN-229 (glioblastoma), OVCAR-3 (ovarian carcinoma), HT-29 (colon carcinoma), MCF-7 (breast carcinoma) cell lines using the standard MTS assay is summarized in Table 1. In Table 1, compounds 22a-d and compounds 23a-c refer to structures 22 and 23 in Scheme 5, respectively. Compounds 24aa-an and 24ba-bq refer to structure 24 in Scheme 6. Compounds 26a-e refer to structure 26 in Scheme 6. Compounds 36a-c refer to structure 36 in Scheme 10.

Daoy = assay: MTS cell viability assay, Daoy; format: cell-based; conditions: Homo sapiens, Daoy, cells incubated 72 h
Procedure: as §1, §2, §3, §4

Compound	IC50 (SK-MEL-2 (melanoma)) [µM]	IC50 (Daoy) [µM]
C=C(CO)[C@@H]1CC[C@]2(CO)CC[C@]3(C)[C@H](CC[C@@H]4[C@@]5(C)CC[C@H](O)C(C)(C)[C@@H]5CC[C@]43C)[C@@H]12 [Compound 8a]	> 75	> 75
C=C(C(=O)O)[C@@H]1CC[C@]2(C(=O)O)CC[C@]3(C)[C@H](CC[C@@H]4[C@@]5(C)CCC(=O)C(C)(C)[C@@H]5CC[C@]43C)[C@@H]12 [Compound 11]	> 75	> 75
C=C(CO)[C@@H]1CC[C@]2(COC(C)=O)CC[C@]3(C)[C@H](CC[C@@H]4[C@@]5(C)CCC(=O)C(C)(C)[C@@H]5CC[C@]43C)[C@@H]12 [Compound 12]	> 45	> 45
C=C(C(=O)O)[C@@H]1CC[C@]2(COC(C)=O)CC[C@]3(C)[C@H](CC[C@@H]4[C@@]5(C)CCC(=O)C(C)(C)[C@@H]5CC[C@]43C)[C@@H]12 [Compound 13a]	> 45	> 45
C=C(C(=O)O)[C@@H]1CC[C@]2(CO)CC[C@]3(C)[C@H](CC[C@@H]4[C@@]5(C)CCC(=O)C(C)(C)[C@@H]5CC[C@]43C)[C@@H]12 [Compound 13b]	> 75	> 75
C=C(C(=O)O)[C@@H]1CC[C@]2(CO)CC[C@]3(C)[C@H](CC[C@@H]4[C@@]5(C)CC[C@H](O)C(C)(C)[C@@H]5CC[C@]43C)[C@@H]12 [Compound 15]	> 75	> 75
C=C(COC(C)=O)[C@@H]1CC[C@]2(CO)CC[C@]3(C)[C@H](CC[C@@H]4[C@@]5(C)CCC(=O)C(C)(C)[C@@H]5CC[C@]43C)[C@@H]12 [Compound 16]	43	> 45
C=C(COC(C)=O)[C@@H]1CC[C@]2(C(=O)O)CC[C@]3(C)[C@H](CC[C@@H]4[C@@]5(C)CCC(=O)C(C)(C)[C@@H]5CC[C@]43C)[C@@H]12 [Compound 17a, 30-O-acetyl betulonic acid]	> 45	> 45
C=C(CO)[C@@H]1CC[C@]2(C(=O)O)CC[C@]3(C)[C@H](CC[C@@H]4[C@@]5(C)CCC(=O)C(C)(C)[C@@H]5CC[C@]43C)[C@@H]12 [Compound 17b]	> 45	> 45
C=C(COC(C)=O)[C@@H]1CC[C@]2(C=O)CC[C@]3(C)[C@H](CC[C@@H]4[C@@]5(C)CCC(=O)C(C)(C)[C@@H]5CC[C@]43C)[C@@H]12 [Compound 18a]	> 45	> 45
C=C(CO)[C@@H]1CC[C@]2(C=O)CC[C@]3(C)[C@H](CC[C@@H]4[C@@]5(C)CCC(=O)C(C)(C)[C@@H]5CC[C@]43C)[C@@H]12 [Compound 18b]	> 75	> 75
C=C(COC(C)=O)[C@@H]1CC[C@]2(C(=O)O)CC[C@]3(C)[C@H](CC[C@@H]4[C@@]5(C)CC[C@H](O)C(C)(C)[C@@H]5CC[C@]43C)[C@@H]12 [Compound 19a]	> 45	> 45
C=C(CO)[C@@H]1CC[C@]2(C(=O)O)CC[C@]3(C)[C@H](CC[C@@H]4[C@@]5(C)CC[C@H](O)C(C)(C)[C@@H]5CC[C@]43C)[C@@H]12 [Compound 19b]	> 45	> 45
C=C(C=O)[C@@H]1CC[C@]2(C=O)CC[C@]3(C)[C@H](CC[C@@H]4[C@@]5(C)CCC(=O)C(C)(C)[C@@H]5CC[C@]43C)[C@@H]12 [Compound 20]		34
C=C(CNCCO)[C@@H]1CC[C@]2(COC3CCCCO3)CC[C@]3(C)[C@H](CC[C@@H]4[C@@]5(C)CCC(=O)C(C)(C)[C@@H]5CC[C@]43C)[C@@H]12 (some centres unmarked) [Compound 22a]	17	21
